Target: γ-secretase (Homo sapiens (Human), UniProt P49768)
Assay: Cellular γ-secretase assay (inhibition of Aβ42 secretion, AlphaLisa)
Assay type: cell-based
Settings: human neuroglioma H4 cells overexpressing human APP695 Swedish double mutation, 24 hr compound incubation
Method: Human neuroglioma H4 cells overexpressing human APP695 with the Swedish double mutation (K595N/M596L) were plated at 30,000 cells/well/100 μl in 96-well plates in IMDM media containing 10% FCS, 0.2 mg/l Hygromycin B and incubated at 37° C., 5% CO2.
3-4 hr post plating, compounds are a diluted in media and 50 μl is added as 1.5-fold concentrate to achieve the final concentration. Compound incubation is performed for 24 hr. Final doses typically range from 4 μM down to 0.001 μM in half-log steps resulting in a eight point dose response curve.
Appropriate controls using vehicle only and reference compound were applied to this assay. The final concentration of Me2SO was 0.4%.
After incubation at 37° C., 5% CO2, the supernatant was subjected to quantification of secreted Aβ42 by the means of an AlphaLisa assay kit (Human Amyloid beta 1-42 Kit: Cat #AL203C, Perkin Elmer). 20 μl of the cell culture supernatant was transferred to an assay plate. Then 10 μl of a mixture of the AlphaLisa coupled capture antibody and the biotinylated detection antibody was added and incubated for 3 hours at room temperature while softly shaking the assay plate. After a further addition of 20 μl of the Donor beads the assay plate was incubated for 30 min at room temperature and constant shaking without exposure to direct light. The assay plate was then read on a Paradigm AlphaLisa Reader using the build-in program with excitation at 680 nm and emission at 570 nm.
The measured signals were then used to calculate IC50 values for inhibition of Aβ42 secretion by nonlinear regression fit analysis using XLfit 5.3 software (IDBS).

Row | EC50 [nM] | SMILES
1 | 14 | Cc1cn(C23CCC(Nc4nc5n(n4)CCCC[C@H]5c4cc(F)cc(Cl)c4)(CC2)CC3)cn1 [Example 8, (9S)-9-(3-chloro-5-fluoro-phenyl)-N-[4-(4-methylimidazol-1-yl)-1-bicyclo[2.2.2]octanyl]-6,7,8,9-tetrahydro-5H-[1,2,4]triazolo[1,5-a]azepin-2-amine]
2 | 14 | Cc1cn(C23CC(Nc4nc5n(n4)CCCC[C@H]5c4cc(F)cc(Cl)c4)(C2)C3)cn1 [Example 10, (9S)-9-(3-chloro-5-fluoro-phenyl)-N-[3-(4-methylimidazol-1-yl)-1-bicyclo[1.1.1]pentanyl]-6,7,8,9-tetrahydro-5H-[1,2,4]triazolo[1,5-a]azepin-2-amine]
3 | 14 | Cc1cn(C23CC(Nc4nc5n(n4)CCCC[C@@H]5c4ccc(F)c(F)c4F)(C2)C3)cn1 [Example 19, (9R)-N-[3-(4-methylimidazol-1-yl)-1-bicyclo[1.1.1]pentanyl]-9-(2,3,4-trifluorophenyl)-6,7,8,9-tetrahydro-5H-[1,2,4]triazolo[1,5-a]azepin-2-amine]
4 | 10 | Cc1cn(C23CC(Nc4nc5n(n4)CCCC[C@H]5c4ccc(F)c(F)c4F)(C2)C3)cn1 [Example 20, (9S)-N-[3-(4-methylimidazol-1-yl)-1-bicyclo[1.1.1]pentanyl]-9-(2,3,4-trifluorophenyl)-6,7,8,9-tetrahydro-5H-[1,2,4]triazolo[1,5-a]azepin-2-amine]
5 | 62 | Cc1cn(C23CCC(Nc4nc5n(n4)CCCC[C@H]5c4ccccc4F)(CC2)CC3)cn1 [Example 18, (9S)-9-(2-fluorophenyl)-N-[4-(4-methylimidazol-1-yl)-1-bicyclo[2.2.2]octanyl]-6,7,8,9-tetrahydro-5H-[1,2,4]triazolo[1,5-a]azepin-2-amine]
6 | 25 | Cc1cn(C23CC(Nc4nc5n(n4)CCCC[C@@H]5c4ccc(F)cc4)(C2)C3)cn1 [Example 3, (9R)-9-(4-fluorophenyl)-N-[3-(4-methylimidazol-1-yl)-1-bicyclo[1.1.1]pentanyl]-6,7,8,9-tetrahydro-5H-[1,2,4]triazolo[1,5-a]azepin-2-amine]
7 | 8 | Cc1cn(C23CC(Nc4nc5n(n4)CCCC[C@@H]5c4cc(F)cc(Cl)c4)(C2)C3)cn1 [Example 9, (9R)-9-(3-chloro-5-fluoro-phenyl)-N-[3-(4-methylimidazol-1-yl)-1-bicyclo[1.1.1]pentanyl]-6,7,8,9-tetrahydro-5H-[1,2,4]triazolo[1,5-a]azepin-2-amine]
8 | 27 | Cc1cn(C23CC(Nc4nc5n(n4)CCCC[C@H]5c4ccc(F)c(F)c4)(C2)C3)cn1 [Example 14, (9S)-9-(3,4-difluorophenyl)-N-[3-(4-methylimidazol-1-yl)-1-bicyclo[1.1.1]pentanyl]-6,7,8,9-tetrahydro-5H-[1,2,4]triazolo[1,5-a]azepin-2-amine]
9 | 38 | Cc1cn(C23CC(Nc4nc5n(n4)CCCC[C@@H]5c4ccccc4F)(C2)C3)cn1 [Example 15, (9R)-9-(2-fluorophenyl)-N-[3-(4-methylimidazol-1-yl)-1-bicyclo[1.1.1]pentanyl]-6,7,8,9-tetrahydro-5H-[1,2,4]triazolo[1,5-a]azepin-2-amine]
10 | 26 | Cc1cn(C23CC(Nc4nc5n(n4)CCCC[C@@H]5c4ccc(Cl)cc4)(C2)C3)cn1 [Example 5, (9R)-9-(4-chlorophenyl)-N-[3-(4-methylimidazol-1-yl)-1-bicyclo[1.1.1]pentanyl]-6,7,8,9-tetrahydro-5H-[1,2,4]triazolo[1,5-a]azepin-2-amine]
11 | 49 | Cc1cn(C23CCC(Nc4nc5n(n4)CCCC[C@H]5c4ccc(F)c(F)c4)(CC2)CC3)cn1 [Example 12, (9S)-9-(3,4-difluorophenyl)-N-[4-(4-methylimidazol-1-yl)-1-bicyclo[2.2.2]octanyl]-6,7,8,9-tetrahydro-5H-[1,2,4]triazolo[1,5-a]azepin-2-amine]
12 | 56 | Cc1cn(C23CCC(Nc4nc5n(n4)CCCC[C@@H]5c4ccccc4F)(CC2)CC3)cn1 [Example 17, (9R)-9-(2-fluorophenyl)-N-[4-(4-methylimidazol-1-yl)-1-bicyclo[2.2.2]octanyl]-6,7,8,9-tetrahydro-5H-[1,2,4]triazolo[1,5-a]azepin-2-amine]
13 | 31 | Cc1cn(C23CC(Nc4nc5n(n4)CCCC[C@H]5c4ccc(F)cc4)(C2)C3)cn1 [Example 4, (9S)-9-(4-fluorophenyl)-N-[3-(4-methylimidazol-1-yl)-1-bicyclo[1.1.1]pentanyl]-6,7,8,9-tetrahydro-5H-[1,2,4]triazolo[1,5-a]azepin-2-amine]
14 | 39 | Cc1cn(C23CCC(Nc4nc5n(n4)CCCC[C@@H]5c4ccc(F)c(F)c4)(CC2)CC3)cn1 [Example 11, (9R)-9-(3,4-difluorophenyl)-N-[4-(4-methylimidazol-1-yl)-1-bicyclo[2.2.2]octanyl]-6,7,8,9-tetrahydro-5H-[1,2,4]triazolo[1,5-a]azepin-2-amine]
15 | 43 | Cc1cn(C23CCC(Nc4nc5n(n4)CCCC[C@@H]5c4ccc(F)c(F)c4F)(CC2)CC3)cn1 [Example 21, (9R)-N-[4-(4-methylimidazol-1-yl)-1-bicyclo[2.2.2]octanyl]-9-(2,3,4-trifluorophenyl)-6,7,8,9-tetrahydro-5H-[1,2,4]triazolo[1,5-a]azepin-2-amine]
16 | 44 | Cc1cn(C23CC(Nc4nc5n(n4)CCCC[C@@H]5c4ccc(F)c(F)c4)(C2)C3)cn1 [Example 13, (9R)-9-(3,4-difluorophenyl)-N-[3-(4-methylimidazol-1-yl)-1-bicyclo[1.1.1]pentanyl]-6,7,8,9-tetrahydro-5H-[1,2,4]triazolo[1,5-a]azepin-2-amine]
17 | 16 | Cc1cn(C23CC(Nc4nc5n(n4)CCCC[C@H]5c4cccc(Cl)c4)(C2)C3)cn1 [Example 2, (9S)-9-(3-chlorophenyl)-N-[3-(4-methylimidazol-1-yl)-1-bicyclo[1.1.1]pentanyl]-6,7,8,9-tetrahydro-5H-[1,2,4]triazolo[1,5-a]azepin-2-amine]
18 | 27 | Cc1cn(C23CCC(Nc4nc5n(n4)CCCC[C@H]5c4ccc(F)c(F)c4F)(CC2)CC3)cn1 [Example 22, (9S)-N-[4-(4-methylimidazol-1-yl)-1-bicyclo[2.2.2]octanyl]-9-(2,3,4-trifluorophenyl)-6,7,8,9-tetrahydro-5H-[1,2,4]triazolo[1,5-a]azepin-2-amine]
19 | 15 | Cc1cn(C23CCC(Nc4nc5n(n4)CCCC[C@@H]5c4cc(F)cc(Cl)c4)(CC2)CC3)cn1 [Example 7, (9R)-9-(3-chloro-5-fluoro-phenyl)-N-[4-(4-methylimidazol-1-yl)-1-bicyclo[2.2.2]octanyl]-6,7,8,9-tetrahydro-5H-[1,2,4]triazolo[1,5-a]azepin-2-amine]
20 | 15 | Cc1cn(C23CC(Nc4nc5n(n4)CCCC[C@@H]5c4cccc(Cl)c4)(C2)C3)cn1 [Example 1, (9R)-9-(3-chlorophenyl)-N-[3-(4-methylimidazol-1-yl)-1-bicyclo[1.1.1]pentanyl]-6,7,8,9-tetrahydro-5H-[1,2,4]triazolo[1,5-a]azepin-2-amine]
21 | 19 | Cc1cn(C23CC(Nc4nc5n(n4)CCCC[C@H]5c4ccccc4F)(C2)C3)cn1 [Example 16, (9S)-9-(2-fluorophenyl)-N-[3-(4-methylimidazol-1-yl)-1-bicyclo[1.1.1]pentanyl]-6,7,8,9-tetrahydro-5H-[1,2,4]triazolo[1,5-a]azepin-2-amine]
22 | 23 | Cc1cn(C23CC(Nc4nc5n(n4)CCCC[C@H]5c4ccc(Cl)cc4)(C2)C3)cn1 [Example 6, (9S)-9-(4-chlorophenyl)-N-[3-(4-methylimidazol-1-yl)-1-bicyclo[1.1.1]pentanyl]-6,7,8,9-tetrahydro-5H-[1,2,4]triazolo[1,5-a]azepin-2-amine]
